Laboratory results taken from patent US10906900B2, “Compounds for using in imaging and particularly for the diagnosis of neurodegenerative diseases” (CENTRE NATIONAL DE LA RECHERCHE SCIENTIFIQUE, priority 2016, dated 2021).
Read-outs that look alike come from different tables or passages of the source.

Assays:
Aβ1-42 fibres = Aβ1-42 fibres (Homo sapiens, UniProt P05067); experiment: In vitro inhibition of ThT binding and determination of Ki (fluorescence), Aβ1-42 fibres; conditions: vs Thioflavin T 500 nM; Aβ1-42 fibres 500 nM; PBS pH7.4, 1 h RT; read-out: Ki Aβ
Aβ1-42 fibres, sequence (P05067 672-713 limits assumed): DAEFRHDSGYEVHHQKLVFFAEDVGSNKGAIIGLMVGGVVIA
Method: (§1) To obtain fiber assembly, α-syn is incubated in Tris-HCl 50 mM pH7.5, KCl 150 mM at 37° C. under continuous agitation during 4 days. The lyophilized Aβ1-42 was dissolved in 1,1,1,3,3,3-Hexafluoro-2-propanol (HFIP) at 0.2 mg/mL and incubated for 24 h at 37° C. to obtain the complete solubilization. The HFIP is evaporated under nitrogen stream to obtain a dry product. To start the fiber assembly, the dry peptide is resuspended in PBS pH7.4, 10% (v/v) DMSO and incubated at 37° C. for 3 days without agitation.
(§2) Protein fibers are systematically observed by electron microscopy (Jeol 1400). The images are recorded with a CCD camera (Gatan Orius). Finally, the percentage of α-syn and Aβ1-42 aggregated into fibers is checked on the pellet after centrifugation at 40000×g for 20 min and determination of the concentration of soluble protein/peptide remaining in the supernatant.
(§3) The samples are incubated for 1 h at room temperature (RT) to reach equilibrium. […] From each curve, the IC50 value is measured using the following equation: Y=min+(max−min)/1+([…])^slope

Aβ1-42 fibers = Aβ1-42 fibers (Homo sapiens, UniProt P05067); experiment: In vitro direct determination of Kd and Bmax by fluorescence, Aβ1-42 fibers; format: binding; conditions: for Aβ Bmax1: density of binding sites; for Aβ Bmax1 / Kd: direct fluorescence, Scatchard analysis; for Kd: Aβ1-42 fibers 500 nM, read-out: Aβ Kd1; for Aβ Bmax1 (number of sites/monomer): in brackets in the Bmax cell
Aβ1-42 fibers, sequence (P05067 672-713 limits assumed): as above
Method: as §1
(§4) Fresh solutions of each test compound (2.5 mM in DMSO) are diluted in PBS pH=7.4 at concentrations between 0.5 nM and 5 μM in the presence or absence of α-syn (200 nM), Aβ1-42 (500 nM) or Tau (200 nM) fibers in a final 2 mL volume. After 1 h of incubation at RT, the binding of each compound to α-syn, A131-42 or Tau fibers is measured by fluorescence using the spectral changes of the compounds during their binding to the fibers, using the appropriate excitation/emission wavelengths (those giving the highest fluorescence variation during binding to the fibres). For each concentration of compound added to the fibres, the bound and free fractions are measured by fluorescence according to the following equation: Fm=FBB+FF×(T−B)
(§5) The value of FF is determined by measuring the fluorescence of known concentrations of compounds in the absence of fibres. The FB value is determined by measuring the maximum fluorescence of known concentrations of compounds in the presence of saturated concentrations of α-syn, Aβ1-42, or Tau fibers.
(§6) The values of B thus determined versus the concentrations of the free fractions (T-B) are analyzed according to the Michaelis-Menten equation. The affinity (Kd) and density of binding sites within the fibers of α-syn, Aβ1-42 or Tau (Bmax) are determined by Scatchard analysis, which also makes it possible to highlight multiple site classes.

α-syn fibers = α-syn fibers (Homo sapiens (Human), UniProt P37840); experiment: In vitro direct determination of Kd and Bmax by fluorescence, α-syn fibers; format: binding; conditions: for αsyn Bmax1: density of binding sites; for αsyn Bmax1 / Kd: direct fluorescence, Scatchard analysis; for Kd: α-syn fibers 200 nM, read-out: αsyn Kd1; for αsyn Bmax1 (number of sites/monomer): in brackets in the Bmax cell; for α-syn selectivity according to analysis of Kd (Tables 6 and 7): selective = good affinity and at least two times greater than for at least one of the two other proteins
Method: as §1, §4, §5, §6

Tau fibers = Tau fibers (Homo sapiens (Human), UniProt P10636); experiment: In vitro direct determination of Kd and Bmax by fluorescence, Tau fibers; format: binding; conditions: for Tau Bmax1: density of binding sites; for Tau Bmax1 / Kd: direct fluorescence, Scatchard analysis; for Kd: Tau fibers 200 nM, read-out: Tau Kd1; for Tau Bmax1 (number of sites/monomer): in brackets in the Bmax cell; for Tau selectivity according to analysis of Kd (Tables 6 and 7): selective = good affinity and at least two times greater than for at least one of the two other proteins
Tau fibers, sequence (P10636 other isoform, or with tags, fused parts or gaps): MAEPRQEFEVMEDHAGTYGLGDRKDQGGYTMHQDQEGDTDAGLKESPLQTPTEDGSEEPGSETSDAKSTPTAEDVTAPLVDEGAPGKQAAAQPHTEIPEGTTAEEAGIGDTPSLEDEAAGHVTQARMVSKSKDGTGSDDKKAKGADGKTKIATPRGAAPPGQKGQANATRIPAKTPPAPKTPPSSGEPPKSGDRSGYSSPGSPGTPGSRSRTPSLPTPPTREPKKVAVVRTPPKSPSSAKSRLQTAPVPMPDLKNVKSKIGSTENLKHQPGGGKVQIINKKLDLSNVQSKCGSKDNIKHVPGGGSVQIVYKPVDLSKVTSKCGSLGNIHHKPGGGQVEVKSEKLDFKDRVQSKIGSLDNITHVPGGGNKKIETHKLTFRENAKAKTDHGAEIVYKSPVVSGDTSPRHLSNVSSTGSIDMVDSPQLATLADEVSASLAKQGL
Method: Human Tau protein (isoform h2N4RTau) is expressed in the vector pET11d in E. Coli (strain BL21 (DE3), (Stratagene, La Jolla, Calif.)) and purified according to the described method (Barghorn S, Biernat J, Mandelkow E. (2005) Methods Mol Biol. 299:35-51). The Tau purified concentration is determined by measuring the absorbance at 280 nm using a molar extinction coefficient of 7450 M^−1 cm^−1.
(§7) Tau protein in PBS buffer containing 1 mM DTT is assembled into fiber in the presence of one twelfth of a molar equivalent of heparin at 37° C. under stirring.
as §4
Where Fm is the fluorescence measured in the presence of fibers at a concentration T of the compound added to the fibers, FB is the specific fluorescence of the bound compound, FF is the specific fluorescence of the free compound, and B is the concentration of the fiber bound compound at a given concentration T (Bell, J. E., “Fluorescence; Solution Studies”, Spectrometry in Biochemistry, vol. I, Bell, J. E., ed., CRC Press, Inc., Boca Raton, Fla., pp. 155-194 (1981)).
as §5
Thus, at each point, the concentration of bound compound B is determined according to the following equation: B=(Fm−FF×T)/(FB−FF)
as §6

Tau fibres = Tau fibres (Homo sapiens (Human), UniProt P10636); experiment: In vitro inhibition of ThT binding and determination of Ki (fluorescence), Tau fibres; conditions: for Tau selectivity according to analysis of Ki (Table 5): selective = good affinity and at least two times greater than for at least one of the two other proteins
Tau fibres, sequence (P10636 other isoform, or with tags, fused parts or gaps): as above
Method: as §7, §3

α-syn fibres = α-syn fibres (Homo sapiens (Human), UniProt P37840); experiment: In vitro inhibition of ThT binding and determination of Ki (fluorescence), α-syn fibres; conditions: for Ki: vs Thioflavin T 500 nM, α-syn fibres 200 nM, PBS pH7.4, 1 h RT, read-out: Ki αsyn; for α-syn selectivity according to analysis of Ki (Table 5): selective = good affinity and at least two times greater than for at least one of the two other proteins
Method: as §1, §2, §3

[1] = vs Thioflavin T 500 nM, Tau fibres 200 nM, PBS pH7.4, 1 h RT

| Ki (Aβ1-42 fibres) | SMILES | Aβ Bmax1 (Aβ1-42 fibers) | Kd (Aβ1-42 fibers) | Aβ Bmax1 (number of sites/monomer) (Aβ1-42 fibers) | αsyn Bmax1 (α-syn fibers) | Kd (α-syn fibers) | αsyn Bmax1 (number of sites/monomer) (α-syn fibers) | α-syn selectivity according to analysis of Kd (Tables 6 and 7) (α-syn fibers) | Tau Bmax1 (Tau fibers) | Kd (Tau fibers) | Tau Bmax1 (number of sites/monomer) (Tau fibers) | Ki (Tau fibres; [1]) | Ki (α-syn fibres) | Ki (Tau fibres) | Tau selectivity according to analysis of Ki (Table 5) (Tau fibres) | α-syn selectivity according to analysis of Ki (Table 5) (α-syn fibres) | Tau selectivity according to analysis of Kd (Tables 6 and 7) (Tau fibers) |
| --- | --- | --- | --- | --- | --- | --- | --- | --- | --- | --- | --- | --- | --- | --- | --- | --- | --- |
| 349 ± 256 nM | CN(C)c1ccc(C#Cc2cc3ccc(F)nc3[nH]2)cc1 [Compound 22f, 4-((6-Fluoro-1H-pyrrolo[2,3-b]pyridin-2-yl)ethynyl)-N,N-dimethylaniline] | 21.6 ± 3 nmol/μmol prot | 16.8 ± 2 nM | 1/50 | – | – | – | – | – | – | – | – | – | – | – | – | – |
| 244 ± 84 nM | CN(C)c1ccc(C#Cc2cc3c(F)ccnc3[nH]2)cc1 [Compound 22h, 4-((4-Fluoro-1H-pyrrolo[2,3-b]pyridin-2-yl)ethynyl)-N,N-dimethylaniline] | – | – | – | – | – | – | – | – | – | – | – | – | – | – | – | – |
| – | CN(C)c1ccc(C#Cc2cc3ccc(-c4ccc(F)nc4)nc3[nH]2)cc1 [Compound 25c, 4-((6-(6-Fluoropyridin-3-yl)-1H-pyrrolo[2,3-b]pyridin-2-yl)ethynyl)-N,N-dimethylaniline] | 11.0 ± 2 nmol/μmol prot | 3.1 ± 1 nM | 1/90 | – | – | – | – | – | – | – | – | – | – | – | – | – |
| – | CN(C)c1ccc(C#Cc2cc3ccc(-c4ccsc4)nc3[nH]2)cc1 [Compound 25b, N,N-Dimethyl-4-((6-(thiophen-3-yl)-1H-pyrrol[2,3-b]pyridin-2-yl)ethynyl)aniline] | 11.0 ± 1 nmol/μmol prot | 4.27 ± 0.6 nM | 1/90 | – | – | – | – | – | – | – | – | – | – | – | – | – |
| – | CN(C)c1ccc(C#Cc2cc3ccc(-c4cccs4)nc3[nH]2)cc1 [Compound 25a, N,N-Dimethyl-4-((6-(thiophen-2-yl)-1H-pyrrol[2,3-b]pyridin-2-yl)ethynyl)aniline] | 5.8 ± 0.32 nmol/μmol prot | 4.9 ± 0.6 nM | 1/170 | 53.5 ± 10 nmol/μmol prot | 0.49 ± 0.2 nM | 1/20 | selective | 70.4 ± 4 nmol/μmol prot | 1.67 ± 0.5 nM | 1/10 | – | – | – | – | – | – |
| 318 ± 95 nM | CN(C)c1ccc(C#Cc2cc3cc(F)cnc3[nH]2)cc1 [Compound 22g, 4-((5-Fluoro-1H-pyrrolo[2,3-b]pyridin-2-yl)ethynyl)-N,N-dimethylaniline] | – | – | – | – | – | – | – | – | – | – | – | – | – | – | – | – |
| – | CN(C)c1ccc(C#Cc2cc3cnccc3[nH]2)cc1 [Compound 22d, 4-((1H-Pyrrolo[3,2-c]pyridin-2-yl)ethynyl)-N,N-dimethylaniline] | 2.4 ± 0.8 nmol/μmol prot | 3.6 ± 2 nM | 1/400 | 6.0 ± 1 nmol/μmol prot | 1 ± 0.5 nM | 1/170 | selective | 12.5 ± 5 nmol/μmol prot | 2.4 ± 0.9 nM | 1/80 | – | – | – | – | – | – |
| 2.2 ± 1 nM | CNc1ccc(/C=C/c2ccc(OCCOCCOCCF)nc2)cc1 [AV45, reference compound] | 3.33 ± 0.2 nmol/μmol prot | 1.68 ± 0.2 nM | 1/300 | 27.9 ± 19 nmol/μmol prot | 24.3 ± 20 nM | 1/35 | – | 92.0 ± 20 nmol/μmol prot | 19.6 ± 5 nM | 1/11 | 30.6 ± 9 nM | 76.6 ± 44 nM | – | – | – | – |
| 909 ± 143 nM | CN(C)c1ccc(C#Cc2cc3ccc(Cl)nc3[nH]2)cc1 [Compound 22e, 4-((6-Chloro-1H-pyrrolo[2,3-b]pyridin-2-yl)ethynyl)-N,N-dimethylaniline] | – | – | – | – | – | – | – | – | – | – | – | 49.9 ± 12 nM | 25.1 ± 8 nM | selective | selective | – |

| SMILES | Ki (Aβ1-42 fibres) | Aβ Bmax1 (Aβ1-42 fibers) | Kd (Aβ1-42 fibers) | Aβ Bmax1 (number of sites/monomer) (Aβ1-42 fibers) | αsyn Bmax1 (α-syn fibers) | Kd (α-syn fibers) | αsyn Bmax1 (number of sites/monomer) (α-syn fibers) | α-syn selectivity according to analysis of Kd (Tables 6 and 7) (α-syn fibers) | Tau Bmax1 (Tau fibers) | Kd (Tau fibers) | Tau Bmax1 (number of sites/monomer) (Tau fibers) | Ki (Tau fibres; [1]) | Ki (α-syn fibres) | Ki (Tau fibres) | Tau selectivity according to analysis of Ki (Table 5) (Tau fibres) | α-syn selectivity according to analysis of Ki (Table 5) (α-syn fibres) | Tau selectivity according to analysis of Kd (Tables 6 and 7) (Tau fibers) |
| --- | --- | --- | --- | --- | --- | --- | --- | --- | --- | --- | --- | --- | --- | --- | --- | --- | --- |
| CC(=C(C#N)C#N)c1ccc2cc(N(C)CCF)ccc2c1 [FDDNP, reference compound] | 4.6 ± 3 nM | 10.2 ± 1 nmol/μmol prot | 4.2 ± 1 nM | 1/100 | 39.5 ± 10 nmol/μmol prot | 16.1 ± 6 nM | 1/25 | – | 138.5 ± 16 nmol/μmol prot | 34.9 ± 6 nM | 1/7 | 9.5 ± 1 nM | 25.1 ± 5 nM | – | – | – | – |
| CN(C)c1ccc(C#Cc2cc3ccncc3[nH]2)cc1 [Compound 22b, 4-((1H-Pyrrolo[2,3-c]pyridin-2-yl)ethynyl)-N,N-dimethylaniline] | 91.5 ± 11 nM | 2.3 ± 0.8 nmol/μmol prot | 5.2 ± 3 nM | 1/400 | 80.0 ± 42 nmol/μmol prot | 1.4 ± 1 nM | 1/15 | selective | 37.1 ± 10 nmol/μmol prot | 0.49 ± 0.2 nM | 1/30 | – | 28.7 ± 8 nM | 8.4 ± 2 nM | selective | selective | selective |
| CN(C)c1ccc(C#Cc2cc3cccnc3[nH]2)cc1 [Compound 22a, 4-((1H-Pyrrolo[2,3-b]pyridin-2-yl)ethynyl)-N,N-dimethylaniline] | 24.5 ± 9 nM | 3.04 ± 0.6 nmol/μmol prot | 11.8 ± 3 nM | 1/300 | 69.5 ± 20 nmol/μmol prot | 0.53 ± 0.2 nM | 1/14 | selective | 93.0 ± 15 nmol/μmol prot | 0.44 ± 0.1 nM | 1/10 | – | 4.7 ± 2 nM | 4.61 ± 0.2 nM | selective | selective | selective |
| CN(C)c1ccc(C#Cc2cc3ncccc3[nH]2)cc1 [Compound 22c, 4-((1H-Pyrrolo[3,2-b]pyridin-2-yl)ethynyl)-N,N-dimethylaniline] | 21.3 ± 7 nM | 1.44 ± 0.6 nmol/μmol prot | 2.9 ± 2 nM | 1/700 | 82.5 ± 5 nmol/μmol prot | 3.25 ± 0.2 nM | 1/12 | – | 26.5 ± 5 nmol/μmol prot | 0.13 ± 0.05 nM | 1/40 | – | 26 ± 16 nM | 12 ± 1 nM | selective | – | selective |
